Laboratory results from the Kinase Knowledgebase extract (Sharma et al. 2016).

Biological target: PIK3CG (human) (UniProt P48736)
Test: Inhibition of PIK3CG Kinase Activity

Chain of PIK3CG (human) (P48736 whole entry, looked up): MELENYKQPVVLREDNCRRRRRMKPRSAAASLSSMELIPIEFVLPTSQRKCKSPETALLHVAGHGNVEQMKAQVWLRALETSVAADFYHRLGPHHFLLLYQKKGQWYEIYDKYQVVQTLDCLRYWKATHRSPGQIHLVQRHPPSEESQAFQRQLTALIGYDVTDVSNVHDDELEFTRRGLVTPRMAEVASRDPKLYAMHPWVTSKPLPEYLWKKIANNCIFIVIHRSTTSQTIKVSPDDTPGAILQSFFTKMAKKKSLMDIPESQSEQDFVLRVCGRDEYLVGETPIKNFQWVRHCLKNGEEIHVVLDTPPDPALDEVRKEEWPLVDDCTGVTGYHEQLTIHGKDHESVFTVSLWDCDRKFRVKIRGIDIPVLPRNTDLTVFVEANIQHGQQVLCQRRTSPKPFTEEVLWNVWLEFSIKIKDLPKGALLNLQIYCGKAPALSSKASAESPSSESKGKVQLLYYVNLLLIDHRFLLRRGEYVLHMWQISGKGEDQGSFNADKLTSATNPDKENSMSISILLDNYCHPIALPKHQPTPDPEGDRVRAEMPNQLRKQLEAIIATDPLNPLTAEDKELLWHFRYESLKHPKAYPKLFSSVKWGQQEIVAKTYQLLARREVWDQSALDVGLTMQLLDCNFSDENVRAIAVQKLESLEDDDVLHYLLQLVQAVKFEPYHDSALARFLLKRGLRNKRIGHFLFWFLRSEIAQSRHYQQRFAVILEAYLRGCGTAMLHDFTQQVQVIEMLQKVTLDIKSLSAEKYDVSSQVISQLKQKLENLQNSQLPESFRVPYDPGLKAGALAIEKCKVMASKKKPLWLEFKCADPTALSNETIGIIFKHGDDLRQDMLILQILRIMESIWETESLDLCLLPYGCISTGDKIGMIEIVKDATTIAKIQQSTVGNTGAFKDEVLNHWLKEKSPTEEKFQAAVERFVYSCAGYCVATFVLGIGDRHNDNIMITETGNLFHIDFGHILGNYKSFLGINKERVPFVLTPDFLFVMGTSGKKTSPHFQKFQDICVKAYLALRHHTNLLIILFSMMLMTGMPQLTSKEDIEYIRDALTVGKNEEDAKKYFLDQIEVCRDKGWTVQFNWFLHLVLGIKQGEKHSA

Compound | Ki [µM]
COc1ncc(-c2ccc3c(n2)CN(c2cnn(CC(F)(F)F)c2)C3=O)cc1CO | 0.1 to 0.49
CCNC(=O)c1cncc(-c2cc(C)c3c(n2)CN(c2ccn([C@H]4CCOC4)n2)C3=O)c1 | 0.1 to 0.49
COCCn1cc(N2Cc3nc(-c4cnc(OC)c(OC)c4)ccc3C2=O)ccc1=O | 0.1 to 0.49
CC#CCn1cc(N2Cc3cc(-c4cnc(OC)c(OC)c4)ccc3C2=O)cn1 | 0.1 to 0.49
COc1cc(-c2ccc3c(n2)CN(c2cnn(CC(F)(F)F)c2)C3=O)cnc1OC(F)F | 0.1 to 0.49
COCCCOc1cc(-c2cc(C)c3c(n2)CN(c2cnn(CC(F)(F)F)c2)C3=O)cnc1OC | < 0.1
COc1cc(-c2cc(C)c3c(n2)CN(c2ccn(C4CC4)n2)C3=O)cnc1OC | < 0.1
Cc1cc(-c2ccc(N)nc2)nc2c1C(=O)N(c1cnn(CC(F)(F)F)c1)C2 | < 0.1
COc1cc(-c2ccc3c(n2)CN(c2cnn(C4CC4)c2)C3=O)cnc1OC | < 0.1
COc1ncc(-c2cc(C)c3c(n2)CN(c2cnn(CC(F)(F)F)c2)C3=O)cc1F | < 0.1
COc1cc(-c2cc(C)c3c(n2)CN(c2cn(C)cn2)C3=O)cnc1OC | < 0.1
CCn1ccc(N2C(=O)c3ccc(-c4cnc(OC)c(OC)c4)nc3[C@H]2C)n1 | < 0.1
COCCOc1cc(-c2cc(C)c3c(n2)CN(c2cnn(CC(F)(F)F)c2)C3=O)cnc1OC | < 0.1
COc1cc(-c2cc(C)c3c(n2)CN(c2cn[nH]c2)C3=O)cnc1OC | < 0.1
CCOC1(C)c2nc(-c3cnc(OC)c(OC)c3)cc(C)c2C(=O)N1c1cnn(CC(F)(F)F)c1 (centres undefined) | < 0.1
COc1cc(-c2cc(C)c3c(n2)C(CC2CCOC2)N(c2cnn(CC(F)(F)F)c2)C3=O)cnc1OC (centres undefined) | < 0.1
COc1cc(-c2cc(C)c3c(n2)C(C)N(c2cnn(C[C@@H](C)O)c2)C3=O)cnc1OC (some centres undefined) | < 0.1
COc1cc(-c2cc(C)c3c(n2)[C@@H](OC)N(c2cnn(CC(F)(F)F)c2)C3=O)cnc1OC | < 0.1
COc1cc(-c2ccc3c(n2)[C@@H](C)N(c2cnn(CC(C)(C)O)c2)C3=O)cnc1OC | < 0.1
COc1cc(-c2cc(C)c3c(n2)CN(c2ccc(C)s2)C3=O)cnc1OC | < 0.1

Compound | Ki [µM]
CCC(=O)Nc1cncc(-c2cc(C)c3c(n2)C(C)(C)N(c2cnn(CC(F)(F)F)c2)C3=O)c1 | 0.1 to 0.49
C=C(F)Cn1cc(N2C(=O)c3ccc(-c4cnc(OC)c(OC)c4)nc3C2(C)C)cn1 | < 0.1
COc1cccc(-c2cc(C)c3c(n2)CN(c2cnn(C(C)(C)C#N)c2)C3=O)c1 | < 0.1
Cc1cc(-c2cncc(S(C)(=O)=O)c2)nc2c1C(=O)N(c1cnn(CC(F)(F)F)c1)[C@H]2C | < 0.1
COc1cc(-c2cc(C)c3c(n2)C2(CCCO2)N(c2cnn(CC(F)(F)F)c2)C3=O)cnc1OC(C)C (centres undefined) | < 0.1
COc1cncc(-c2cc(C)c3c(n2)C(C)(C)N(c2ccn([C@@H]4CCOC4)n2)C3=O)c1 | 0.1 to 0.49
COc1cc(-c2ccc3c(n2)CN(c2ccc(C)s2)C3=O)cnc1OC | < 0.1
COc1cc(-c2ccc3c(c2)CN(c2cnn(CCO)c2)C3=O)cnc1OC | 0.1 to 0.49
CCn1cc(N2Cc3nc(-c4cnc(OC)c(OC)c4)ccc3C2=O)nn1 | < 0.1
COCCNC(=O)c1cncc(-c2cc(C)c3c(n2)C(C)(C)N(c2cnn(CC(F)(F)F)c2)C3=O)c1 | < 0.1
COCc1cc(N2Cc3nc(-c4cnc(OC)c(OC)c4)ccc3C2=O)nn1C | < 0.1
COc1cc(-c2ccc3c(n2)CN(c2cccs2)C3=O)cnc1OC | < 0.1
COc1cc(-c2ccc3c(c2)CN(c2cnn(CC(F)(F)F)c2)C3=O)cnc1OC | < 0.1
COc1ncc(-c2cc(C)c3c(n2)CN(c2cnn(C(C)(C)C#N)c2)C3=O)cc1OC(C)C | < 0.1
COc1cc(-c2ccc3c(n2)CN(c2ccc(N4CCC(C#N)CC4)nc2)C3=O)cnc1OC | < 0.1
COc1cc(-c2ccc3c(n2)CN(c2ccc(N4CCN(CCC#N)CC4)nc2)C3=O)cnc1OC | < 0.1
COc1cc(-c2ccc3c(n2)CN(c2cnn(CCN4CCC(C#N)CC4)c2)C3=O)cnc1OC | 0.1 to 0.49
COC(=O)Cc1cncc(N2Cc3nc(-c4cnc(OC)c(OC)c4)ccc3C2=O)c1 | < 0.1
COc1cc(-c2ccc3c(n2)CN(c2ccn(C[C@@H](C)O)n2)C3=O)cnc1OC | < 0.1

More lines, now with the values ahead:

Ki [µM] | Compound
< 0.1 | COc1cc(-c2cc(C)c3c(n2)CN(c2ccnc(OCC(F)(F)F)c2)C3=O)cnc1OC
< 0.1 | CCn1ccc(N2C(=O)c3c(C)cc(-c4cncc(OC(F)F)c4)nc3[C@H]2C)n1
< 0.1 | COc1cc(-c2cc(C)c3c(n2)CN(c2cncs2)C3=O)cnc1OC
< 0.1 | COc1cncc(-c2cc(C)c3c(n2)C(OC)N(c2cnn(CC(F)(F)F)c2)C3=O)c1 (centres undefined)
< 0.1 | CCOc1ncc(-c2cc(C)c3c(c2)CN(c2cnn(CC(F)(F)F)c2)C3=O)cc1OC
< 0.1 | CCC1c2nc(-c3cnc(OC)c(OC)c3)ccc2C(=O)N1c1cnn(CC(F)(F)F)c1 (centres undefined)
< 0.1 | CCCOC1c2nc(-c3cnc(OC)c(OC)c3)cc(C)c2C(=O)N1c1cnn(CC(F)(F)F)c1 (centres undefined)
< 0.1 | Cc1cc(-c2cnc(F)c(O)c2)nc2c1C(=O)N(c1cnn(CC(F)(F)F)c1)C2(C)C
< 0.1 | COc1cc(-c2ccc3c(n2)CN(c2cnn(CC(C)C)c2)C3=O)cnc1OC
< 0.1 | COc1cc(-c2cc(C)c3c(n2)CN(c2ccnc(OCC(F)F)c2)C3=O)cnc1OC
< 0.1 | CCNC(=O)c1cc(-c2cc(C)c3c(n2)C(C)(C)N(c2cnn(CC(F)F)c2)C3=O)cnc1OC
< 0.1 | CCCn1nc(N2Cc3nc(-c4cnc(OC)c(OC)c4)cc(C)c3C2=O)cc1COC
< 0.1 | COc1cncc(-c2cc(C)c3c(n2)CN(c2ccn(CC(F)(F)F)n2)C3=O)c1
< 0.1 | CCNS(=O)(=O)c1cc(-c2cc(C)c3c(n2)C(C)(C)N(c2cnn(CC(F)(F)F)c2)C3=O)cnc1OC
< 0.1 | COc1cc(-c2cc(C)c3c(n2)CN(c2cnc(OC)c(F)c2)C3=O)cnc1OC
< 0.1 | Cc1cc(-c2cccc(OC(F)(F)F)c2)nc2c1C(=O)N(c1cnn(CC(F)(F)F)c1)C2
< 0.1 | CCn1ccc(N2Cc3cc(-c4cnc(OC)c(OC)c4)ccc3C2=O)n1
< 0.1 | COc1cncc(-c2cc(C)c3c(n2)[C@H](C)N(c2ccn(C[C@H](C)O)n2)C3=O)c1
< 0.1 | COCCOc1ncc(-c2cc(C)c3c(n2)C(C)N(c2ccn(C)n2)C3=O)cc1OC (centres undefined)
< 0.1 | COc1cc(-c2cc(OC)c3c(n2)CN(c2cnn(CC(F)(F)F)c2)C3=O)cnc1OC
< 0.1 | COc1cncc(-c2cc(C)c3c(n2)CN(c2ccn(C[C@@H](C)F)n2)C3=O)c1
< 0.1 | Cc1cc(-c2cncc(OC(F)F)c2)nc2c1C(=O)N(c1cnn(C[C@@H](C)O)c1)C2
< 0.1 | COc1cncc(-c2cc(C)c3c(n2)C(C)(O)N(c2cnn(CC(F)(F)F)c2)C3=O)c1 (centres undefined)
< 0.1 | COc1cc(-c2ccc3c(n2)CN(c2cnn(C[C@H](O)CC#N)c2)C3=O)cnc1OC
< 0.1 | Cc1cc(-c2cncc(OCC(F)(F)F)c2)cc2c1C(=O)N(c1cnn(CC(F)(F)F)c1)C2C (centres undefined)
< 0.1 | COc1cncc(-c2cc(C)c3c(n2)[C@]2(CCOC2)N(c2cnn(CC(F)(F)F)c2)C3=O)c1
< 0.1 | CCn1cc(N2Cc3nc(-c4cnc(OC)c(OC)c4)cc(C)c3C2=O)cn1
< 0.1 | COc1cc(-c2ccc3c(n2)CN(c2cnn(C(C)(C)C#N)c2)C3=O)cnc1OC(F)F
< 0.1 | COc1cc(-c2ccc3c(n2)C(C)N(c2ccn(CC(C)(C)O)n2)C3=O)cnc1OC (centres undefined)
< 0.1 | COc1ccc(-c2cc(C)c3c(n2)C(C)(C)N(c2cnn(CC(F)F)c2)C3=O)nc1OC
